Laboratory results as given in PMC11859928, “Design, Synthesis, and Antiproliferative Activity of Novel Indole/1,2,4-Triazole Hybrids as Tubulin Polymerization Inhibitors” (Pharmaceuticals, 2025).
Like-named read-outs stand apart in the source and are kept apart here.

Tests used:
BT-549 = test: NCI five-dose assay; type: cell-based, human; conditions: BT-549, Breast cancer
EKVX = test: NCI five-dose assay; type: cell-based, human; conditions: Non-small cell lung cancer
MDA-MB-468 = test: NCI five-dose assay; type: cell-based, human; conditions: MDA-MB-468, Breast cancer
OVCAR-3 = test: NCI five-dose assay; type: cell-based, human; conditions: Homo sapiens, OVCAR-3, Ovarian cancer
CAKI-1 = test: NCI five-dose assay; type: cell-based, human; conditions: CAKI-1, Renal cancer
CNS cancer subpanel = test: NCI five-dose assay, subpanel mean; type: cell-based, human
K-562 = test: NCI five-dose assay; type: cell-based, human; conditions: K-562, Leukemia
HOP-62 = test: NCI five-dose assay; type: cell-based, human; conditions: HOP-62, Non-small cell lung cancer
HCC-2998 = test: NCI five-dose assay; type: cell-based, human; conditions: HCC-2998, Colon cancer
tubulin = target: T1, tubulin (Sus scrofa, UniProt P02550+P02554); test: Tubulin polymerization inhibitory assay; type: biochemical
T1 construct: purchased Cytoskeleton Inc., Denver, CO, USA
Summary of the method: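 Compound effects on tubulin polymerization were measured with the Tubulin Polymerization Assay Kit (Cytoskeleton Inc., Denver, CO, USA), run as the supplier instructs, which detects polymerization through enhancement of a fluorescent reporter. Docetaxel served as the stabilizing control and vincristine as the destabilizing control, each at 3 µM in PBS.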

MCF7 = test: NCI five-dose assay; type: cell-based, human; conditions: MCF7, Breast cancer
Renal cancer subpanel = test: NCI five-dose assay, subpanel mean; type: cell-based, human
OVCAR-8 = test: NCI five-dose assay; type: cell-based, human; conditions: OVCAR-8, Ovarian cancer
[1] = test system: Non-small cell lung cancer subpanel; test: NCI five-dose assay, subpanel mean; type: cell-based, human
SF-268 = test: NCI five-dose assay; type: cell-based, human; conditions: SF-268, CNS cancer
HOP-92 = test: NCI five-dose assay; type: cell-based, human; conditions: HOP-92, Non-small cell lung cancer
HS 578T = test: NCI five-dose assay; type: cell-based, human; conditions: Breast cancer
NCI-H226 = test: NCI five-dose assay; type: cell-based, human; conditions: NCI-H226, Non-small cell lung cancer
NCI-H460 = test: NCI five-dose assay; type: cell-based, human; conditions: NCI-H460, Non-small cell lung cancer
SNB-19 = test: NCI five-dose assay; type: cell-based, human; conditions: SNB-19, CNS cancer
OVCAR-4 = test: NCI five-dose assay; type: cell-based, human; conditions: OVCAR-4, Ovarian cancer
UACC-62 = test: NCI five-dose assay; type: cell-based, human; conditions: UACC-62, Melanoma
Prostate cancer subpanel = test: NCI five-dose assay, subpanel mean; type: cell-based, human
T-47D = test: NCI five-dose assay; type: cell-based, human; conditions: Breast cancer
Colon cancer subpanel = test: NCI five-dose assay, subpanel mean; type: cell-based, human
[2] = Homo sapiens, 48 h, read-out: LC50 (the source's name)
[3] = Homo sapiens, read-out: GI50 Conc. per Cell Lines

T1 sequence (P02554 whole entry): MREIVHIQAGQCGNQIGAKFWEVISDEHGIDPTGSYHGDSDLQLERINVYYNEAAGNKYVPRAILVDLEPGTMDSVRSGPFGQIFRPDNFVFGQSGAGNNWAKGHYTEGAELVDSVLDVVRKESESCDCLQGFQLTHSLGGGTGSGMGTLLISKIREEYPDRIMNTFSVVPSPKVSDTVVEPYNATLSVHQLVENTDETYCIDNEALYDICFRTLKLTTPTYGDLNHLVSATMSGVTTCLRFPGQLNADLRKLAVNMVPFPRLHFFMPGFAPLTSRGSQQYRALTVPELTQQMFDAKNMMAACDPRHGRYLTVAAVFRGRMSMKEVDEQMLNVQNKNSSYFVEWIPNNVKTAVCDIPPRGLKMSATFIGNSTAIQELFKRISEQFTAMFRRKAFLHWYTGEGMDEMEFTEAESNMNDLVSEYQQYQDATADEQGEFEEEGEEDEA
T1 sequence (P02550 whole entry): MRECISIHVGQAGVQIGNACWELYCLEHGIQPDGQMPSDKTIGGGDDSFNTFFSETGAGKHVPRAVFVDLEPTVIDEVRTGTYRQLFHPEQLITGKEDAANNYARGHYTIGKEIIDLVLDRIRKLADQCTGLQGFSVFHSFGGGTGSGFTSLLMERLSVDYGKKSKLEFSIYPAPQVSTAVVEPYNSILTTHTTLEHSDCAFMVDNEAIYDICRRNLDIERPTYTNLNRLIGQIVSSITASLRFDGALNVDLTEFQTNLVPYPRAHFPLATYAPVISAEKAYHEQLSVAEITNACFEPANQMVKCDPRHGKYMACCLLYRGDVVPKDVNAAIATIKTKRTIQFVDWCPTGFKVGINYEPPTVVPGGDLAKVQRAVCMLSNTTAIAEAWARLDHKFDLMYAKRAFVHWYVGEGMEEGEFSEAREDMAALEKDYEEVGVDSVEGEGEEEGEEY

Cc1ccc(/C(CSc2nnc(-c3c[nH]c4ccccc34)n2-c2ccccc2)=N/O)cc1 [Compound 7h, (Z)-2-((5-(1H-Indol-3-yl)-4-phenyl-4H-1,2,4-triazol-3-yl)thio)-1-(p-tolyl)ethanone Oxime]
TGI Conc. per Cell Lines (BT-549): 3.03 µM | CC50 (BT-549; [2]): 5.78 µM | GI50 (BT-549; [3]): 1.59 µM | CC50 (EKVX; [2]): > 100 µM | GI50 (EKVX; [3]): 2.15 µM | TGI Conc. per Cell Lines (EKVX): 5.58 µM | LC50 (MDA-MB-468; Homo sapiens, 48 h): 5.64 µM | GI50 (MDA-MB-468; [3]): 1.5 µM | TGI Conc. per Cell Lines (MDA-MB-468): 2.91 µM | LC50 (OVCAR-3; 48 h): > 100 µM | GI50 (OVCAR-3; read-out: GI50 Conc. per Cell Lines): 4.26 µM | TGI Conc. per Cell Lines (CAKI-1): 3.06 µM | LC50 (CAKI-1; Homo sapiens, 48 h): 5.74 µM | GI50 (CAKI-1; [3]): 1.63 µM | GI50 Selectivity Ratio (MID a/MID b) (CNS cancer subpanel; CNS cancer subpanel): 1.04 | GI50 (CNS cancer subpanel; Homo sapiens, average sensitivity of all cell lines of the CNS cancer subpanel, read-out: GI50 Subpanel MID b): 2.86 µM | CC50 (K-562; Homo sapiens, K562, 48 h, read-out: LC50 (the source's name)): > 100 µM | GI50 (K-562; Homo sapiens, K562, read-out: GI50 Conc. per Cell Lines): 2.01 µM | TGI Conc. per Cell Lines (K-562): 4.97 µM | TGI Conc. per Cell Lines (HOP-62): 3.42 µM | CC50 (HOP-62; [2]): 6.93 µM | GI50 (HOP-62; [3]): 1.69 µM | TGI Conc. per Cell Lines (HCC-2998): 3.93 µM | CC50 (HCC-2998; [2]): 7.39 µM | GI50 (HCC-2998; [3]): 2.09 µM | %inhibition (tubulin; conc 0.01 (unit not given; IC50 from this curve in µg/ml)): 2.01% | %inhibition (tubulin; conc 0.1 (unit not given; IC50 from this curve in µg/ml)): 8.94% | %inhibition (tubulin; conc 1 (unit not given; IC50 from this curve in µg/ml)): 26.1% | %inhibition (tubulin; conc 10 (unit not given; IC50 from this curve in µg/ml)): 49.9% | %inhibition (tubulin; conc 100 (unit not given; IC50 from this curve in µg/ml)): 76.7% | IC50 (tubulin; read-out: Tub. IC50±SD (converted)): 18.4 µM | IC50 (tubulin; read-out: Tubulin Inhibitory Effect, IC50): 18.4 ± 0.7 µM | LC50 (MCF7; Homo sapiens, 48 h): > 100 µM | GI50 (MCF7; [3]): 2.42 µM | TGI Conc. per Cell Lines (MCF7): 7.01 µM | GI50 (Renal cancer subpanel; Homo sapiens, average sensitivity of all cell lines of the Renal cancer subpanel, read-out: GI50 Subpanel MID b): 5.77 µM | GI50 Selectivity Ratio (MID a/MID b) (Renal cancer subpanel; Renal cancer subpanel): 0.52 | GI50 (OVCAR-8; [3]): 2.19 µM | TGI Conc. per Cell Lines (OVCAR-8): 4.89 µM | GI50 ([1]; Homo sapiens, average sensitivity of all cell lines of the Non-small cell lung cancer subpanel, read-out: GI50 Subpanel MID b): 4.44 µM | GI50 Selectivity Ratio (MID a/MID b) ([1]; Non-small cell lung cancer subpanel): 0.68 | CC50 (SF-268; [2]): > 100 µM | GI50 (SF-268; [3]): 1.99 µM | TGI Conc. per Cell Lines (SF-268): 4.66 µM | TGI Conc. per Cell Lines (HOP-92): 37.40 µM | CC50 (HOP-92; [2]): > 100 µM | GI50 (HOP-92; [3]): 11.9 µM | TGI Conc. per Cell Lines (HS 578T): 4.82 µM | LC50 (HS 578T; Homo sapiens, 48 h): > 100 µM | GI50 (HS 578T; [3]): 2.07 µM | CC50 (NCI-H226; [2]): 6.91 µM | GI50 (NCI-H226; [3]): 1.63 µM | TGI Conc. per Cell Lines (NCI-H226): 3.36 µM | CC50 (NCI-H460; [2]): 6.55 µM | GI50 (NCI-H460; [3]): 3.18 µM | TGI Conc. per Cell Lines (NCI-H460): 12.20 µM | CC50 (SNB-19; [2]): 8.46 µM | GI50 (SNB-19; [3]): 1.87 µM | TGI Conc. per Cell Lines (SNB-19): 3.97 µM | LC50 (OVCAR-4; Homo sapiens, 48 h): 7.04 µM | GI50 (OVCAR-4; [3]): 1.75 µM | TGI Conc. per Cell Lines (OVCAR-4): 3.51 µM | CC50 (UACC-62; [2]): 6.31 µM | GI50 (UACC-62; [3]): 1.69 µM | TGI Conc. per Cell Lines (UACC-62): 3.26 µM | GI50 (Prostate cancer subpanel; Homo sapiens, average sensitivity of all cell lines of the Prostate cancer subpanel, read-out: GI50 Subpanel MID b): 1.85 µM | GI50 Selectivity Ratio (MID a/MID b) (Prostate cancer subpanel; Prostate cancer subpanel): 1.61 | TGI Conc. per Cell Lines (T-47D): 4.75 µM | LC50 (concentration killing 50% of cells) (T-47D; Homo sapiens, T47D, 48 h): > 100 µM | GI50 (T-47D; Homo sapiens, T47D, read-out: GI50 Conc. per Cell Lines): 2.07 µM | GI50 Selectivity Ratio (MID a/MID b) (Colon cancer subpanel; Colon cancer subpanel): 0.959 | GI50 (Colon cancer subpanel; Homo sapiens, average sensitivity of all cell lines of the Colon cancer subpanel, read-out: GI50 Subpanel MID b): 3.13 µM
